Measurements reported in ChEMBL document CHEMBL3885881, “DrugMatrix”.

Species: Rattus norvegicus
Experiment: DrugMatrix - Regimen: Daily Repeat
Type: toxicity, organism-based, Sprague-Dawley
Design: regimen Daily Repeat, gender Male, age 6-8 weeks
Details: in vivo, po, route oral GAVAGE, […]; for ABSOLUTE BASOPHIL / ABSOLUTE EOSINOPHIL / ABSOLUTE LYMPHOCYTE / ABSOLUTE MONOCYTE / ABSOLUTE SEGMENTED NEUTROPHIL / BASOPHIL / EOSINOPHIL / ERYTHROCYTE COUNT / HEMATOCRIT / HEMOGLOBIN / LEUKOCYTE COUNT / LYMPHOCYTE / MEAN CORPUSCULAR HEMOGLOBIN / MEAN CORPUSCULAR HEMOGLOBIN CONCENTRATION / MEAN CORPUSCULAR VOLUME / MONOCYTE / NEUTROPHIL / NUCLEATED RED BLOOD CELLS / PLATELET COUNT: tissue Blood; for ALANINE AMINOTRANSFERASE / ALBUMIN / ALKALINE PHOSPHATASE / ASPARTATE AMINOTRANSFERASE / BLOOD UREA NITROGEN / CARBON DIOXIDE / CHLORIDE / CHOLESTEROL / CREATINE PHOSPHOKINASE / CREATININE / GLUCOSE / LACTATE DEHYDROGENASE / LIPASE / PHOSPHORUS / POTASSIUM / SODIUM / TOTAL BILIRUBIN / TOTAL PROTEIN / URIC ACID: tissue Plasma
[1] = 0 mg/kg, 72 h, dose level Control, time 3 day
[2] = 0 mg/kg, 120 h, dose level Control, time 5 day
[3] = 12 mg/kg, 72 h, dose level Low, time 3 day

What does the source list for `CO[C@H]1/C=C/O[C@@]2(C)Oc3c(C)c(O)c4c(O)c(c(/C=N/N5CCN(C6CCCC6)CC5)c(O)c4c3C2=O)NC(=O)/C(C)=C\C=C\[C@H](C)[C@H](O)[C@@H](C)[C@@H](O)[C@@H](C)[C@H](OC(C)=O)[C@@H]1C` [RIFAPENTINE]?
ABSOLUTE BASOPHIL [1]: 0 CELLS/uL; ABSOLUTE EOSINOPHIL [1]: 179.67 CELLS/uL; ABSOLUTE LYMPHOCYTE [1]: 11440.17 CELLS/uL; ABSOLUTE MONOCYTE [1]: 128.83 CELLS/uL; ABSOLUTE SEGMENTED NEUTROPHIL [1]: 1051.33 CELLS/uL; BASOPHIL [1]: 0%; EOSINOPHIL [1]: 1.33%; ERYTHROCYTE COUNT [1]: 5.53 x10E6/uL; HEMATOCRIT [1]: 34.75%; HEMOGLOBIN [1]: 12.88 G/DL; LEUKOCYTE COUNT [1]: 12.8 x10E3/uL; LYMPHOCYTE [1]: 89.5%; MEAN CORPUSCULAR HEMOGLOBIN [1]: 23.38 pg; MEAN CORPUSCULAR HEMOGLOBIN CONCENTRATION [1]: 37.12 G/DL; MEAN CORPUSCULAR VOLUME [1]: 62.88 fL; MONOCYTE [1]: 1%; NEUTROPHIL [1]: 8.17%; NUCLEATED RED BLOOD CELLS [1]: 0 /100WBC; PLATELET COUNT [1]: 1292 x10E3/uL; ALANINE AMINOTRANSFERASE [1]: 58.67 u/L; ALBUMIN [1]: 4.25 G/DL; ALKALINE PHOSPHATASE [1]: 437.83 u/L; ASPARTATE AMINOTRANSFERASE [1]: 85.17 u/L; BLOOD UREA NITROGEN [1]: 14.17 mg/dL; CARBON DIOXIDE [1]: 28.67 mmol/L; CHLORIDE [1]: 102.17 MEQ/L; CHOLESTEROL [1]: 68.5 mg/dL; CREATINE PHOSPHOKINASE [1]: 271.83 u/L; CREATININE [1]: 0.2 mg/dL; GLUCOSE [1]: 156.67 mg/dL; LACTATE DEHYDROGENASE [1]: 112.33 u/L; LIPASE [1]: 9.33 u/L; PHOSPHORUS [1]: 11.1 mg/dL; POTASSIUM [1]: 6.46 MEQ/L; SODIUM [1]: 144.37 MEQ/L; TOTAL BILIRUBIN [1]: 0.23 mg/dL; TOTAL PROTEIN [1]: 5.8 G/DL; URIC ACID [1]: 1.55 mg/dL; ABSOLUTE BASOPHIL [2]: 0 CELLS/uL; ABSOLUTE EOSINOPHIL [2]: 87 CELLS/uL; ABSOLUTE LYMPHOCYTE [2]: 14743.5 CELLS/uL; ABSOLUTE MONOCYTE [2]: 187 CELLS/uL; ABSOLUTE SEGMENTED NEUTROPHIL [2]: 1499.17 CELLS/uL; BASOPHIL [2]: 0%; EOSINOPHIL [2]: 0.5%; ERYTHROCYTE COUNT [2]: 5.84 x10E6/uL; HEMATOCRIT [2]: 36.3%; HEMOGLOBIN [2]: 13.55 G/DL; LEUKOCYTE COUNT [2]: 16.52 x10E3/uL; LYMPHOCYTE [2]: 89.5%; MEAN CORPUSCULAR HEMOGLOBIN [2]: 23.25 pg; MEAN CORPUSCULAR HEMOGLOBIN CONCENTRATION [2]: 37.35 G/DL; MEAN CORPUSCULAR VOLUME [2]: 62.27 fL; MONOCYTE [2]: 1.17%; NEUTROPHIL [2]: 8.83%; NUCLEATED RED BLOOD CELLS [2]: 0.17 /100WBC; PLATELET COUNT [2]: 1233.5 x10E3/uL; ALANINE AMINOTRANSFERASE [2]: 62.5 u/L; ALBUMIN [2]: 4.17 G/DL; ALKALINE PHOSPHATASE [2]: 464.33 u/L; ASPARTATE AMINOTRANSFERASE [2]: 99.67 u/L; BLOOD UREA NITROGEN [2]: 14.33 mg/dL; CARBON DIOXIDE [2]: 26 mmol/L; CHLORIDE [2]: 102.33 MEQ/L; CHOLESTEROL [2]: 60.67 mg/dL; CREATINE PHOSPHOKINASE [2]: 402.5 u/L; CREATININE [2]: 0.22 mg/dL; GLUCOSE [2]: 173.5 mg/dL; LACTATE DEHYDROGENASE [2]: 518.17 u/L; LIPASE [2]: 10.83 u/L; PHOSPHORUS [2]: 11.4 mg/dL; POTASSIUM [2]: 6.13 MEQ/L; SODIUM [2]: 142.63 MEQ/L; TOTAL BILIRUBIN [2]: 0.17 mg/dL; TOTAL PROTEIN [2]: 6.1 G/DL; URIC ACID [2]: 1.97 mg/dL; ABSOLUTE BASOPHIL [3]: 0 CELLS/uL; ABSOLUTE EOSINOPHIL [3]: 44.67 CELLS/uL; ABSOLUTE LYMPHOCYTE [3]: 14914 CELLS/uL; ABSOLUTE MONOCYTE [3]: 225.33 CELLS/uL; ABSOLUTE SEGMENTED NEUTROPHIL [3]: 1216 CELLS/uL; BASOPHIL [3]: 0%; EOSINOPHIL [3]: 0.33%; ERYTHROCYTE COUNT [3]: 5.83 x10E6/uL; HEMATOCRIT [3]: 34.83%; HEMOGLOBIN [3]: 12.73 G/DL; LEUKOCYTE COUNT [3]: 16.4 x10E3/uL; LYMPHOCYTE [3]: 91%; MEAN CORPUSCULAR HEMOGLOBIN [3]: 21.83 pg; MEAN CORPUSCULAR HEMOGLOBIN CONCENTRATION [3]: 36.57 G/DL; MEAN CORPUSCULAR VOLUME [3]: 59.7 fL; MONOCYTE [3]: 1.33%; NEUTROPHIL [3]: 7.33%; NUCLEATED RED BLOOD CELLS [3]: 0 /100WBC; PLATELET COUNT [3]: 1540.67 x10E3/uL; ALANINE AMINOTRANSFERASE [3]: 75 u/L; ALBUMIN [3]: 4.13 G/DL; ALKALINE PHOSPHATASE [3]: 400.33 u/L; ASPARTATE AMINOTRANSFERASE [3]: 93.33 u/L; BLOOD UREA NITROGEN [3]: 15 mg/dL; CARBON DIOXIDE [3]: 28 mmol/L; CHLORIDE [3]: 102 MEQ/L; CHOLESTEROL [3]: 69.33 mg/dL; CREATINE PHOSPHOKINASE [3]: 485.67 u/L; CREATININE [3]: 0.15 mg/dL; GLUCOSE [3]: 166.67 mg/dL; LACTATE DEHYDROGENASE [3]: 138 u/L; LIPASE [3]: 10 u/L; PHOSPHORUS [3]: 11.53 mg/dL; POTASSIUM [3]: 6.47 MEQ/L; SODIUM [3]: 141.97 MEQ/L; TOTAL BILIRUBIN [3]: 0.23 mg/dL; TOTAL PROTEIN [3]: 5.43 G/DL; URIC ACID [3]: 1.6 mg/dL
